Assay results: PMC6980506, “Comparative pharmacokinetics and pharmacodynamics of the advanced Retinol-Binding Protein 4 antagonist in dog and cynomolgus monkey” (PLoS ONE, 2020)
“And” between values parts separate entries of the source, which are not always exact repeats. Identical values can stand only once. Like-named read-outs stand apart in the source and are kept apart here.

Experiment: Single dose pharmacokinetic study in cynomolgus monkey
Assay type: in vivo
Procedure: Pharmacokinetic studies were conducted in male beagle dogs and male cynomolgus monkeys at SRI International, Menlo Park, CA. General procedures for animal care and housing were in accordance with the National Research Council (NRC) Guide for the Care and Use of Laboratory Animals (1996) and the Animal Welfare Standards incorporated in 9 CFR Part 3, 1991 and complied with guidelines set forth by the ARVO Animal Statement for the Use of Animals in Ophthalmic and Vision Research. During the course of the PK experiments, cynomolgus monkeys were individually housed in stainless steel primary enclosures in an AAALAC-accredited facility. Animals were fed a commercial monkey chow, and supplemental food was provided (fresh fruits, vegetables, seeds, and nuts). Reverse osmosis-purified drinking water was available at all times. Cynomolgus monkeys were maintained on a 12:12 hour light:dark cycle at the 64–84°F temperature and 30–70% humidity. Monkeys had access to enrichment opportunities (grooming devices, foraging devices, activity panels and mirrors) and were provided auditory stimuli and human interaction enrichment throughout the study. Blood samples were collected by venipuncture of a peripheral vein. Animals were acclimated to the squeeze back mechanism in their home cage by repeated, short periods of restraint during general husbandry procedures for at least 2 weeks prior to dosing. Animal were not removed from their cages for collection, and no anesthesia/analgesic agents were used for blood collection. […] For PK experiments, beagle dogs were individually housed in enclosed run (≥ 4 ft x 6 ft). Dogs were exposed to their daily ration of food, Harlan Teklad 2025C Certified Global 25% Protein Dog Diet. Water was provided from the public water supply (municipal tap water) ad libitum. Dogs were maintained on a 12:12 hour light:dark cycle at the 72–73°F temperature and 40–71% humidity. Every effort was made to minimize, if not eliminate, pain and suffering in all animals in this study. No restraining devices were used in blood collecting procedures. Dogs were gentle hand-held to restrain by trained technicians with the dogs foreleg extended for sample collection of blood from cephalic vein. Animals were awake during blood sample collection with no anesthesia/analgesic agents used, and positive reinforcement by the technician was provided following collection. […] All dogs were released back to the colony after the study was completed. Male beagle dogs and male cynomolgus monkey received a single i.v. dose of a test compound at 0.5 mg kg^−1 (dog) and 1 mg kg^−1 (monkey) or a single p.o. dose of a test compound of at 2 mg kg^−1 (dog) and 5 mg kg^−1 (monkey). The number of animals that was used in PK experiments is 3 per study group. Intravenous administration vehicle was 3% DMA/45% PEG300/12% ethanol/40% sterile water; p.o. vehicle was 2% Tween 80 in 0.9% saline. […] Blood samples were processed to plasma. Following protein extraction with acetonitrile, compound concentrations in plasma were measured by LC-MS/MS. The plasma drug level data were analyzed using WinNonlin software package; Model 201 (for i.v. bolus administration);was used for the analysis of i.v. data, and Model 200 (for extravascular administration) was used for the analysis of the p.o. data. Aliquots of pre-dose plasma samples, as well as aliquots of plasma PK samples, were used for the analysis of the plasmabiomarker, RBP4.
Administration to Non-Human Primates
II. MATERIALS AND METHODS

[1] = male, cynomolgus monkey, plasma, po, Cyno, 5.0 mg kg^−1 p.o., mean ± SD, n=3

Compound Cc1cc(C(=O)O)nc(N2C[C@H]3C[C@@H](c4ccccc4C(F)(F)F)C[C@H]3C2)n1 [BPN-14136] has a concentration at 2 hr (male, cynomolgus monkey, plasma, po, 5 mg/kg, non-human primate, po 5 mg/kg, 2 hr, read-out: Plasma level, Mean) of 31200 ng/mL, a concentration at 4 hr (male, cynomolgus monkey, plasma, po, 5 mg/kg, non-human primate, po 5 mg/kg, 4 hr, read-out: Plasma level, Individual animals) of 26600 ng/mL and a concentration at 4 hr (male, cynomolgus monkey, plasma, po, 5 mg/kg, non-human primate, po 5 mg/kg, 4 hr, read-out: Plasma level, Mean) of 27200 ng/mL. It also gave a concentration at 6 hr (male, cynomolgus monkey, plasma, po, 5 mg/kg, non-human primate, po 5 mg/kg, 6 hr, read-out: Plasma level, Individual animals) of 26700 ng/mL, a concentration at 6 hr (male, cynomolgus monkey, plasma, po, 5 mg/kg, non-human primate, po 5 mg/kg, 6 hr, read-out: Plasma level, Mean) of 26600 ng/mL and a concentration at 8 h (male, cynomolgus monkey, plasma, po, 5 mg/kg, non-human primate, po 5 mg/kg, 8 hr, read-out: Plasma level, Individual animals) of 23900 ng/mL. It also gave a concentration at 8 h (male, cynomolgus monkey, plasma, po, 5 mg/kg, non-human primate, po 5 mg/kg, 8 hr, read-out: Plasma level, Mean) of 23900 ng/mL, a concentration at 12 h (male, cynomolgus monkey, plasma, po, 5 mg/kg, non-human primate, po 5 mg/kg, 12 hr, read-out: Plasma level, Individual animals) of 16700 ng/mL and a concentration at 12 h (male, cynomolgus monkey, plasma, po, 5 mg/kg, non-human primate, po 5 mg/kg, 12 hr, read-out: Plasma level, Mean) of 18600 ng/mL. For the same compound, the concentration at 24 h (male, cynomolgus monkey, plasma, po, 5 mg/kg, non-human primate, po 5 mg/kg, 24 hr, read-out: Plasma level, Individual animals) was 12700 ng/mL, the concentration at 24 h (male, cynomolgus monkey, plasma, po, 5 mg/kg, non-human primate, po 5 mg/kg, 24 hr, read-out: Plasma level, Mean) was 12500 ng/mL and the concentration at 36 h (male, cynomolgus monkey, plasma, po, 5 mg/kg, non-human primate, po 5 mg/kg, 36 hr, read-out: Plasma level, Individual animals) was 6800 ng/mL. For the same compound, the concentration at 36 h (male, cynomolgus monkey, plasma, po, 5 mg/kg, non-human primate, po 5 mg/kg, 36 hr, read-out: Plasma level, Mean) was 7190 ng/mL, the concentration at 48 h (male, cynomolgus monkey, plasma, po, 5 mg/kg, non-human primate, po 5 mg/kg, 48 hr, read-out: Plasma level, Mean) was 5380 ng/mL and the AUC(0-t) [1] was 676 ± 129 µg·h/mL. For the same compound, the Tmax [1] was 1.67 ± 0.58 h, the half-life (male, cynomolgus monkey, plasma, po, Cyno, 5.0 mg kg^−1 p.o., mean ± SD, n=3, read-out: T1/2, apparent terminal half-life (converted)) was 17.8 ± 4.2 h and the “Plasma level, Individual animals” value (non-human primate, iv 1.0 mg/kg, 0.0083 hr, 1 mg/kg) was 11200 ng/mL and 12100 ng/mL. For the same compound, the “Plasma level, Individual animals” value (non-human primate, iv 1.0 mg/kg, 0.25 hr, 1 mg/kg) was 10900 ng/mL and 10800 ng/mL, the “Plasma level, Individual animals” value (non-human primate, iv 1.0 mg/kg, 0.5 hr, 1 mg/kg) was 10000 ng/mL and 9400 ng/mL and the “Plasma level, Individual animals” value (non-human primate, iv 1.0 mg/kg, 1 hr, 1 mg/kg) was 8350 ng/mL and 9370 ng/mL. The “Plasma level, Individual animals” value (non-human primate, iv 1.0 mg/kg, 2 hr, 1 mg/kg) was 7340 ng/mL and 8000 ng/mL, the “Plasma level, Individual animals” value (non-human primate, iv 1.0 mg/kg, 4 hr, 1 mg/kg) was 6800 ng/mL and 7000 ng/mL and the “Plasma level, Individual animals” value (non-human primate, iv 1.0 mg/kg, 8 hr, 1 mg/kg) was 5290 ng/mL and 6220 ng/mL. For the same compound, the “Plasma level, Individual animals” value (non-human primate, iv 1.0 mg/kg, 12 hr, 1 mg/kg) was 3860 ng/mL and 6000 ng/mL, the “Plasma level, Individual animals” value (non-human primate, iv 1.0 mg/kg, 24 hr, 1 mg/kg) was 2510 ng/mL and 3430 ng/mL and the “Plasma level, Individual animals” value (non-human primate, iv 1.0 mg/kg, 36 hr, 1 mg/kg) was 1610 ng/mL and 1090 ng/mL and 2300 ng/mL. For the same compound, the “Plasma level, Individual animals” value (non-human primate, iv 1.0 mg/kg, 48 hr, 1 mg/kg) was 962 ng/mL and 671 ng/mL and 1530 ng/mL, the “Plasma level, Mean” value (non-human primate, iv 1.0 mg/kg, Predose) was 196 ng/mL and the “Plasma level, Individual animals” value (non-human primate, iv 1.0 mg/kg, Predose, 1 mg/kg) was 132 ng/mL and 64.6 ng/mL and 392 ng/mL. The “Plasma level, Individual animals” value (non-human primate, po 5 mg/kg, 0.25 hr, 5 mg/kg) was 9420 ng/mL and 14200 ng/mL, the “Plasma level, Individual animals” value (non-human primate, po 5 mg/kg, 0.5 hr, 5 mg/kg) was 15200 ng/mL and 23400 ng/mL and the “Plasma level, Individual animals” value (non-human primate, po 5 mg/kg, 1 hr, 5 mg/kg) was 31400 ng/mL and 33300 ng/mL. The “Plasma level, Individual animals” value (non-human primate, po 5 mg/kg, 2 hr, 5 mg/kg) was 29300 ng/mL and 32000 ng/mL, the “Plasma level, Individual animals” value (non-human primate, po 5 mg/kg, 4 hr, 5 mg/kg) was 25800 ng/mL and 29100 ng/mL and the “Plasma level, Individual animals” value (non-human primate, po 5 mg/kg, 6 hr, 5 mg/kg) was 22400 ng/mL and 30600 ng/mL. The “Plasma level, Individual animals” value (non-human primate, po 5 mg/kg, 8 hr, 5 mg/kg) was 21700 ng/mL and 26200 ng/mL, the “Plasma level, Individual animals” value (non-human primate, po 5 mg/kg, 12 hr, 5 mg/kg) was 16100 ng/mL and 22900 ng/mL and the “Plasma level, Individual animals” value (non-human primate, po 5 mg/kg, 24 hr, 5 mg/kg) was 9590 ng/mL and 15100 ng/mL. The “Plasma level, Individual animals” value (non-human primate, po 5 mg/kg, 36 hr, 5 mg/kg) was 5230 ng/mL and 9530 ng/mL and the “Plasma level, Individual animals” value (non-human primate, po 5 mg/kg, 48 hr, 5 mg/kg) was 4550 ng/mL and 2950 ng/mL and 8650 ng/mL.
